Source: the supplement of paper PMC10307832

Legend:
Test in all cases: relative viability (nuclei count vs DMSO), 5 days (fraction); higher = more cells survive
[1] = compound: Cc1ccc(C(=O)Nc2cccc(C(F)(F)F)c2)cc1Nc1cncc(C(N)=O)c1 [ALW-II-49-7] + C[C@]1(O)C[C@@H](c2nc(-c3ccc4ccc(-c5ccccc5)nc4c3)c3c(N)nccn32)C1 [Linsitinib] (partner 1 µM)
In short: (§1)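 Medians of duplicate plates are given as relative viability. That measure is the nuclei count in treated wells divided by the count in vehicle wells. Counts were taken on 4× images of lung cancer cell lines in 1536-well plates, 5 days after pin-tool dosing the day after seeding with one drug alone or a fixed anchor-drug dose plus five library-drug doses (not always all listed) in √10 steps.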

[2] = compound: Cc1nc(Nc2ncc(C(=O)Nc3c(C)cccc3Cl)s2)cc(N2CCN(CCO)CC2)n1 [Dasatinib] + COc1cc2c(Oc3ccc(NC(=O)C4(C(=O)Nc5ccc(F)cc5)CC4)cc3F)ccnc2cc1OCCCN1CCOCC1 [Foretinib] (partner 0.25 µM)
In short: as §1

[3] = compound: Cc1nc(Nc2ncc(C(=O)Nc3c(C)cccc3Cl)s2)cc(N2CCN(CCO)CC2)n1 [Dasatinib] + O=C(CCCCCCC(=O)Nc1ccccc1)NO [Vorinostat] (partner 1 µM)
In short: as §1

[4] = compound: C1CC1C(=O)NC2=NNC3=C2C=CC(=C3)C4=CC(=CC=C4)C(=O)NC5CC5 [XMD13-2] + CC(=O)Nc1cccc(-n2c(=O)n(C3CC3)c(=O)c3c(Nc4ccc(I)cc4F)n(C)c(=O)c(C)c32)c1 [Trametinib] (partner 0.02 µM)
In short: as §1

| Cell Line | relative viability ([1]; first compound 0.08 µM) | relative viability ([1]; first compound 0.253 µM) | relative viability ([1]; first compound 0.8 µM) | relative viability ([1]; first compound 2.53 µM) | relative viability ([1]; first compound 8 µM) | relative viability ([2]; first compound 0.005 µM) | relative viability ([2]; first compound 0.01581 µM) | relative viability ([2]; first compound 0.05 µM) | relative viability ([2]; first compound 0.1581 µM) | relative viability ([2]; first compound 0.5 µM) | relative viability ([3]; first compound 0.005 µM) | relative viability ([3]; first compound 0.01581 µM) | relative viability ([3]; first compound 0.05 µM) | relative viability ([3]; first compound 0.1581 µM) | relative viability ([3]; first compound 0.5 µM) | relative viability ([4]; first compound 0.05 µM) | relative viability ([4]; first compound 0.1581 µM) | relative viability ([4]; first compound 0.5 µM) | relative viability ([4]; first compound 1.581 µM) | relative viability ([4]; first compound 5 µM) |
| --- | --- | --- | --- | --- | --- | --- | --- | --- | --- | --- | --- | --- | --- | --- | --- | --- | --- | --- | --- | --- |
| LOU-NH91 | 0.928 | 0.97 | 0.93 | 0.528 | 0.977 | 0.985 | 0.899 | 0.827 | 0.652 | 0.397 | 0.822 | 0.846 | 0.687 | 0.583 | 0.429 | 0.802 | 0.726 | 0.793 | 0.729 | 0.85 |
| SW 900 |  |  |  |  |  | 0.685 | 0.608 | 0.787 | 0.476 | 0.225 | 0.356 | 0.282 | 0.289 | 0.163 | 0.192 | 0.924 | 0.943 | 0.993 | 0.859 | 0.881 |
| LCLC-103H | 0.994 | 1.15 | 1.16 | 1.15 | 1.05 | 0.725 | 0.626 | 0.55 | 0.378 | 0.157 | 0.852 | 0.787 | 0.694 | 0.582 | 0.293 | 0.66 | 0.677 | 0.742 | 0.738 | 0.76 |
| NCI-H1915 | 1.13 | 1.13 | 1.09 | 1 | 0.825 | 1.05 | 0.804 | 0.957 | 0.431 | 0.298 | 0.539 | 0.483 | 0.446 | 0.374 | 0.119 | 0.392 | 0.289 | 0.318 | 0.284 | 0.35 |
| IA-LM | 0.627 | 0.342 | 0.378 | 0.449 | 0.135 | 1.16 | 1.09 | 1.1 | 0.634 | 0.462 | 1.13 | 0.89 | 1.03 | 0.691 | 0.538 |  |  |  |  |  |
| NCI-H1734 | 0.927 | 0.911 | 0.872 | 0.815 | 0.828 | 0.743 | 0.613 | 0.586 | 0.427 | 0.367 | 0.721 | 0.71 | 0.703 | 0.529 | 0.496 | 0.783 | 0.653 | 0.753 | 0.662 | 0.627 |
| SK-MES-1 | 1.03 | 1.14 | 1.13 | 0.952 | 0.901 | 1.01 | 0.73 | 0.687 | 0.482 | 0.231 | 1.19 | 0.961 | 0.977 | 0.503 | 0.206 | 0.576 | 0.532 | 0.508 | 0.508 | 0.58 |
| Calu-6 | 0.987 | 0.847 | 0.903 | 0.881 | 0.852 | 0.738 | 0.702 | 0.633 | 0.513 | 0.469 |  |  |  |  |  |  |  |  |  |  |
| HCC-15 | 0.963 | 0.931 | 0.973 | 0.971 | 0.947 | 1.09 | 0.919 | 0.876 | 0.719 | 0.57 | 0.85 | 0.719 | 0.842 | 0.655 | 0.669 | 0.353 | 0.351 | 0.428 | 0.363 | 0.344 |
| SK-LU-1 | 1.03 | 1.22 | 1.19 | 0.953 | 0.793 | 0.543 | 0.343 | 0.295 | 0.171 | 0.179 | 0.686 | 0.647 | 0.473 | 0.278 | 0.246 | 0.513 | 0.474 | 0.573 | 0.56 | 0.511 |
| NCI-H2023 | 0.653 | 0.579 | 0.697 | 0.679 | 0.645 | 0.642 | 0.749 | 0.434 | 0.377 | 0.297 | 0.681 | 0.688 | 0.568 | 0.561 | 0.429 | 0.621 | 0.54 | 0.555 | 0.561 | 0.633 |
| NCI-H1650 |  |  |  |  |  | 0.877 | 0.64 | 0.635 | 0.247 | 0.262 | 0.591 | 0.61 | 0.568 | 0.406 | 0.278 | 0.852 | 0.663 | 0.65 | 0.526 | 0.695 |
| NCI-H2342 |  |  |  |  |  | 1.02 | 0.662 | 0.977 | 0.51 | 0.34 | 0.734 | 0.654 | 0.603 | 0.458 | 0.339 | 0.766 | 0.917 | 0.697 | 0.912 | 0.822 |
| NCI-H1299 | 1.02 | 1.05 | 0.696 | 0.721 | 0.423 | 1.11 | 0.708 | 1.09 | 0.386 | 0.255 |  |  |  |  |  |  |  |  |  |  |
| NCI-H522 |  |  |  |  |  |  |  |  |  |  | 1.03 | 0.822 | 0.962 | 0.788 | 0.84 | 0.852 | 0.688 | 0.82 | 0.711 | 0.759 |
| NCI-H1623 |  |  |  |  |  | 0.855 | 0.675 | 0.8 | 0.672 | 0.457 |  |  |  |  |  |  |  |  |  |  |
| NCI-H2170 |  |  |  |  |  | 0.958 | 0.927 | 0.708 | 0.678 | 0.491 | 0.797 | 0.72 | 0.743 | 0.467 | 0.334 | 0.94 | 0.929 | 0.965 | 0.883 | 0.95 |
| NCI-H1648 |  |  |  |  |  |  |  |  |  |  | 0.374 | 0.481 | 0.606 | 0.266 | 0.179 | 0.526 |  | 0.454 | 0.55 | 0.374 |
| NCI-H1703 | 0.564 | 0.78 | 0.567 | 0.277 | 0.224 | 0.276 | 0.292 | 0.23 | 0.202 | 0.262 |  |  |  |  |  |  |  |  |  |  |
| ABC-1 | 0.87 | 0.85 | 0.676 | 0.885 | 0.765 | 1.08 | 0.906 | 0.948 | 0.692 | 0.487 | 1.18 | 1.17 | 0.731 | 0.787 | 0.706 |  |  |  |  |  |
| ChaGo-K-1 |  |  |  |  |  | 0.922 | 0.881 | 0.874 | 0.725 | 0.667 | 0.735 | 0.737 | 0.704 | 0.565 | 0.47 | 0.937 | 0.89 | 0.959 | 0.847 | 0.835 |
